test: DRUGMATRIX: ATPase, Na+/K+ enzyme inhibition (substrate: ATP); format: tissue-based, Sus scrofa, Heart; details: Not Active = under 50% inhibition at 10 µM

Row | Structure (SMILES) | IC50 | Ki
1 | CCCCC(=O)N(Cc1ccc(-c2ccccc2-c2nnn[nH]2)cc1)[C@H](C(=O)O)C(C)C | Not Active | Not Active
2 | O=C(O)COc1ccc(C(=O)c2cccs2)c(Cl)c1Cl | Not Active | Not Active
3 | C[C@@](Cc1ccc(O)c(O)c1)(NN)C(=O)O.O [CARBIDOPA] | Not Active | Not Active
4 | O=C(O)CCCCC1CCSS1 (stereo not drawn) [LIPOIC ACID, ALPHA] | Not Active | Not Active
5 | C[C@]12C=CC(=O)C=C1CC[C@@H]1[C@@H]2C(=O)C[C@@]2(C)[C@H]1CC[C@]2(O)C(=O)CO [PREDNISONE] | Not Active | Not Active
6 | COC(=O)[C@H]1[C@H]2C[C@@H]3c4[nH]c5cc(OC)ccc5c4CCN3C[C@H]2C[C@@H](OC(=O)c2cc(OC)c(OC)c(OC)c2)[C@@H]1OC [RESERPINE] | Not Active | Not Active
7 | O=C(O)c1ccccc1O [SALICYLIC ACID] | Not Active | Not Active
8 | CC1CCC(NC(=O)N(CCCl)N=O)CC1 (centres undefined) [SEMUSTINE] | Not Active | Not Active
9 | O=C1C[C@@H]2OCC=C3CN4CC[C@]56c7ccccc7N1[C@H]5[C@H]2[C@H]3C[C@H]46 [STRYCHNINE] | Not Active | Not Active

test: DRUGMATRIX: Atrial Natriuretic Factor (ANF) radioligand binding (ligand: [125I] ANF (rat)); format: cell membranes, Cavia porcellus, Dunkin-Hartley, Adrenal gland, Membrane; details: Not Active = under 50% inhibition at 10 µM

Row | Structure (SMILES) | IC50 | Ki
10 | CCCCC(=O)N(Cc1ccc(-c2ccccc2-c2nnn[nH]2)cc1)[C@H](C(=O)O)C(C)C | Not Active | Not Active
11 | O=C(O)COc1ccc(C(=O)c2cccs2)c(Cl)c1Cl | Not Active | Not Active
12 | C[C@@](Cc1ccc(O)c(O)c1)(NN)C(=O)O.O [CARBIDOPA] | Not Active | Not Active
13 | O=C(O)CCCCC1CCSS1 (stereo not drawn) [LIPOIC ACID, ALPHA] | Not Active | Not Active
14 | C[C@]12C=CC(=O)C=C1CC[C@@H]1[C@@H]2C(=O)C[C@@]2(C)[C@H]1CC[C@]2(O)C(=O)CO [PREDNISONE] | Not Active | Not Active
15 | COC(=O)[C@H]1[C@H]2C[C@@H]3c4[nH]c5cc(OC)ccc5c4CCN3C[C@H]2C[C@@H](OC(=O)c2cc(OC)c(OC)c(OC)c2)[C@@H]1OC [RESERPINE] | Not Active | Not Active
16 | O=C(O)c1ccccc1O [SALICYLIC ACID] | Not Active | Not Active
17 | CC1CCC(NC(=O)N(CCCl)N=O)CC1 (centres undefined) [SEMUSTINE] | Not Active | Not Active
18 | O=C1C[C@@H]2OCC=C3CN4CC[C@]56c7ccccc7N1[C@H]5[C@H]2[C@H]3C[C@H]46 [STRYCHNINE] | Not Active | Not Active

test: DRUGMATRIX: Calcium Channel Type L, Benzothiazepine radioligand binding (ligand: [3H] Diltiazem); format: cell membranes, Rattus norvegicus, Wistar, Brain, Membrane; details: Not Active = under 50% inhibition at 10 µM

Row | Structure (SMILES) | IC50 | Ki
19 | CCCCC(=O)N(Cc1ccc(-c2ccccc2-c2nnn[nH]2)cc1)[C@H](C(=O)O)C(C)C | Not Active | Not Active
20 | O=C(O)COc1ccc(C(=O)c2cccs2)c(Cl)c1Cl | Not Active | Not Active
21 | C[C@@](Cc1ccc(O)c(O)c1)(NN)C(=O)O.O [CARBIDOPA] | Not Active | Not Active
22 | O=C(O)CCCCC1CCSS1 (stereo not drawn) [LIPOIC ACID, ALPHA] | Not Active | Not Active
23 | C[C@]12C=CC(=O)C=C1CC[C@@H]1[C@@H]2C(=O)C[C@@]2(C)[C@H]1CC[C@]2(O)C(=O)CO [PREDNISONE] | Not Active | Not Active
24 | O=C(O)c1ccccc1O [SALICYLIC ACID] | Not Active | Not Active
25 | CC1CCC(NC(=O)N(CCCl)N=O)CC1 (centres undefined) [SEMUSTINE] | Not Active | Not Active
26 | O=C1C[C@@H]2OCC=C3CN4CC[C@]56c7ccccc7N1[C@H]5[C@H]2[C@H]3C[C@H]46 [STRYCHNINE] | Not Active | Not Active

same assay, conditions: Not Active = under 50% inhibition at 10 µM; read-out: IC50

Row | Structure (SMILES) | IC50 [µM]
27 | COC(=O)[C@H]1[C@H]2C[C@@H]3c4[nH]c5cc(OC)ccc5c4CCN3C[C@H]2C[C@@H](OC(=O)c2cc(OC)c(OC)c(OC)c2)[C@@H]1OC [RESERPINE] | 3.71

same assay, conditions: Not Active = under 50% inhibition at 10 µM; read-out: Ki

Row | Structure (SMILES) | Ki [µM]
28 | COC(=O)[C@H]1[C@H]2C[C@@H]3c4[nH]c5cc(OC)ccc5c4CCN3C[C@H]2C[C@@H](OC(=O)c2cc(OC)c(OC)c(OC)c2)[C@@H]1OC [RESERPINE] | 3.29

test: DRUGMATRIX: Tumor Necrosis Factor (TNF), Non-Selective radioligand binding (ligand: [125I] TNF-alpha); format: cell membranes, Membrane; details: u-937; Not Active = under 50% inhibition at 10 µM

Row | Structure (SMILES) | IC50 | Ki
29 | CCCCC(=O)N(Cc1ccc(-c2ccccc2-c2nnn[nH]2)cc1)[C@H](C(=O)O)C(C)C | Not Active | Not Active
30 | O=C(O)COc1ccc(C(=O)c2cccs2)c(Cl)c1Cl | Not Active | Not Active
31 | C[C@@](Cc1ccc(O)c(O)c1)(NN)C(=O)O.O [CARBIDOPA] | Not Active | Not Active
32 | O=C(O)CCCCC1CCSS1 (stereo not drawn) [LIPOIC ACID, ALPHA] | Not Active | Not Active
33 | C[C@]12C=CC(=O)C=C1CC[C@@H]1[C@@H]2C(=O)C[C@@]2(C)[C@H]1CC[C@]2(O)C(=O)CO [PREDNISONE] | Not Active | Not Active
34 | COC(=O)[C@H]1[C@H]2C[C@@H]3c4[nH]c5cc(OC)ccc5c4CCN3C[C@H]2C[C@@H](OC(=O)c2cc(OC)c(OC)c(OC)c2)[C@@H]1OC [RESERPINE] | Not Active | Not Active
35 | O=C(O)c1ccccc1O [SALICYLIC ACID] | Not Active | Not Active
36 | CC1CCC(NC(=O)N(CCCl)N=O)CC1 (centres undefined) [SEMUSTINE] | Not Active | Not Active
37 | O=C1C[C@@H]2OCC=C3CN4CC[C@]56c7ccccc7N1[C@H]5[C@H]2[C@H]3C[C@H]46 [STRYCHNINE] | Not Active | Not Active

test: DRUGMATRIX: GABAA, Muscimol, Central radioligand binding (ligand: [3H] Muscimol); format: cell membranes, Rattus norvegicus, Wistar, Brain, Membrane; details: Not Active = under 50% inhibition at 10 µM

Row | Structure (SMILES) | IC50 | Ki
38 | CCCCC(=O)N(Cc1ccc(-c2ccccc2-c2nnn[nH]2)cc1)[C@H](C(=O)O)C(C)C | Not Active | Not Active
39 | O=C(O)COc1ccc(C(=O)c2cccs2)c(Cl)c1Cl | Not Active | Not Active
40 | C[C@@](Cc1ccc(O)c(O)c1)(NN)C(=O)O.O [CARBIDOPA] | Not Active | Not Active
41 | O=C(O)CCCCC1CCSS1 (stereo not drawn) [LIPOIC ACID, ALPHA] | Not Active | Not Active
42 | C[C@]12C=CC(=O)C=C1CC[C@@H]1[C@@H]2C(=O)C[C@@]2(C)[C@H]1CC[C@]2(O)C(=O)CO [PREDNISONE] | Not Active | Not Active
43 | COC(=O)[C@H]1[C@H]2C[C@@H]3c4[nH]c5cc(OC)ccc5c4CCN3C[C@H]2C[C@@H](OC(=O)c2cc(OC)c(OC)c(OC)c2)[C@@H]1OC [RESERPINE] | Not Active | Not Active
44 | O=C(O)c1ccccc1O [SALICYLIC ACID] | Not Active | Not Active
45 | CC1CCC(NC(=O)N(CCCl)N=O)CC1 (centres undefined) [SEMUSTINE] | Not Active | Not Active
46 | O=C1C[C@@H]2OCC=C3CN4CC[C@]56c7ccccc7N1[C@H]5[C@H]2[C@H]3C[C@H]46 [STRYCHNINE] | Not Active | Not Active

test: DRUGMATRIX: GABAA, Flunitrazepam, Central radioligand binding (ligand: [3H] Flunitrazepam); format: cell membranes, Rattus norvegicus, Wistar, Brain, Membrane; details: Not Active = under 50% inhibition at 10 µM

Row | Structure (SMILES) | IC50 | Ki
47 | CCCCC(=O)N(Cc1ccc(-c2ccccc2-c2nnn[nH]2)cc1)[C@H](C(=O)O)C(C)C | Not Active | Not Active
48 | O=C(O)COc1ccc(C(=O)c2cccs2)c(Cl)c1Cl | Not Active | Not Active
49 | C[C@@](Cc1ccc(O)c(O)c1)(NN)C(=O)O.O [CARBIDOPA] | Not Active | Not Active
50 | O=C(O)CCCCC1CCSS1 (stereo not drawn) [LIPOIC ACID, ALPHA] | Not Active | Not Active
51 | C[C@]12C=CC(=O)C=C1CC[C@@H]1[C@@H]2C(=O)C[C@@]2(C)[C@H]1CC[C@]2(O)C(=O)CO [PREDNISONE] | Not Active | Not Active
52 | COC(=O)[C@H]1[C@H]2C[C@@H]3c4[nH]c5cc(OC)ccc5c4CCN3C[C@H]2C[C@@H](OC(=O)c2cc(OC)c(OC)c(OC)c2)[C@@H]1OC [RESERPINE] | Not Active | Not Active
53 | O=C(O)c1ccccc1O [SALICYLIC ACID] | Not Active | Not Active
54 | CC1CCC(NC(=O)N(CCCl)N=O)CC1 (centres undefined) [SEMUSTINE] | Not Active | Not Active
55 | O=C1C[C@@H]2OCC=C3CN4CC[C@]56c7ccccc7N1[C@H]5[C@H]2[C@H]3C[C@H]46 [STRYCHNINE] | Not Active | Not Active

test: DRUGMATRIX: Leukotriene, BLT (LTB4) radioligand binding (ligand: [3H]LTB4); format: cell membranes, Membrane; details: u-937; Not Active = under 50% inhibition at 10 µM

Row | Structure (SMILES) | IC50 | Ki
56 | CCCCC(=O)N(Cc1ccc(-c2ccccc2-c2nnn[nH]2)cc1)[C@H](C(=O)O)C(C)C | Not Active | Not Active
57 | O=C(O)COc1ccc(C(=O)c2cccs2)c(Cl)c1Cl | Not Active | Not Active
58 | C[C@@](Cc1ccc(O)c(O)c1)(NN)C(=O)O.O [CARBIDOPA] | Not Active | Not Active
59 | O=C(O)CCCCC1CCSS1 (stereo not drawn) [LIPOIC ACID, ALPHA] | Not Active | Not Active
60 | C[C@]12C=CC(=O)C=C1CC[C@@H]1[C@@H]2C(=O)C[C@@]2(C)[C@H]1CC[C@]2(O)C(=O)CO [PREDNISONE] | Not Active | Not Active
61 | COC(=O)[C@H]1[C@H]2C[C@@H]3c4[nH]c5cc(OC)ccc5c4CCN3C[C@H]2C[C@@H](OC(=O)c2cc(OC)c(OC)c(OC)c2)[C@@H]1OC [RESERPINE] | Not Active | Not Active
62 | O=C(O)c1ccccc1O [SALICYLIC ACID] | Not Active | Not Active
63 | CC1CCC(NC(=O)N(CCCl)N=O)CC1 (centres undefined) [SEMUSTINE] | Not Active | Not Active
64 | O=C1C[C@@H]2OCC=C3CN4CC[C@]56c7ccccc7N1[C@H]5[C@H]2[C@H]3C[C@H]46 [STRYCHNINE] | Not Active | Not Active

test: DRUGMATRIX: Potassium Channel [KATP] radioligand binding (ligand: [3H] Glyburide); format: cell membranes, Membrane; details: hit-t15; Not Active = under 50% inhibition at 10 µM

Row | Structure (SMILES) | IC50 | Ki
65 | CCCCC(=O)N(Cc1ccc(-c2ccccc2-c2nnn[nH]2)cc1)[C@H](C(=O)O)C(C)C | Not Active | Not Active
66 | O=C(O)COc1ccc(C(=O)c2cccs2)c(Cl)c1Cl | Not Active | Not Active
67 | C[C@@](Cc1ccc(O)c(O)c1)(NN)C(=O)O.O [CARBIDOPA] | Not Active | Not Active
68 | O=C(O)CCCCC1CCSS1 (stereo not drawn) [LIPOIC ACID, ALPHA] | Not Active | Not Active
69 | C[C@]12C=CC(=O)C=C1CC[C@@H]1[C@@H]2C(=O)C[C@@]2(C)[C@H]1CC[C@]2(O)C(=O)CO [PREDNISONE] | Not Active | Not Active
70 | COC(=O)[C@H]1[C@H]2C[C@@H]3c4[nH]c5cc(OC)ccc5c4CCN3C[C@H]2C[C@@H](OC(=O)c2cc(OC)c(OC)c(OC)c2)[C@@H]1OC [RESERPINE] | Not Active | Not Active
71 | O=C(O)c1ccccc1O [SALICYLIC ACID] | Not Active | Not Active
72 | CC1CCC(NC(=O)N(CCCl)N=O)CC1 (centres undefined) [SEMUSTINE] | Not Active | Not Active
73 | O=C1C[C@@H]2OCC=C3CN4CC[C@]56c7ccccc7N1[C@H]5[C@H]2[C@H]3C[C@H]46 [STRYCHNINE] | Not Active | Not Active

Source: ChEMBL document CHEMBL1909046, “DrugMatrix in vitro pharmacology data”
